Measurements as given in paper PMC5514153, “Targeting PTPRZ inhibits stem cell-like properties and tumorigenicity in glioblastoma cells” (Scientific Reports, 2017).
Read-outs that look alike come from different tables or passages of the source.

Experiments:
[1] = Plasma and brain levels after intraperitoneal injection; assay type: in vivo, C57BL6 mice; details: for concentration at 1 h: mouse, ip, C57BL6 mice, 1 h after i.p. 30 mg/kg, two female mice
Text: NAZ2329 successfully suppresses the cell proliferation and cell migration of the differentiated glioblastoma cells, as well as cell sphere formation (Figs 7 to 8). NAZ2329 is the first cell-permeable R5 RPTP inhibitor. […] Nevertheless, NAZ2329 is a potentially valuable lead therapeutic for the development of drugs that function through allosteric inhibitory mechanisms against PTPs, such as PTPRZ and PTPRG.

[2] = system: C6 cells; test: Sphere formation, SOX2 expression and self-renewal, C6 cells; assay type: cell-based, rat
Description: Figure 7 Cellular effects of NAZ2329 on the malignant phenotypes of C6 cells. (A) Phosphorylation of paxillin at Tyr-118. C6 cells were incubated with NAZ2329 for the indicated periods. Immunoprecipitated paxillin was analyzed by Western blotting using anti-pY118-paxillin and anti-paxillin. Blots are representative of five independent cultures. […] (B) Cell proliferation assay. C6 cells were incubated for 48 h with NAZ2329 in normal medium containing 2% FBS. […] (C) Boyden chamber assay. Cells were allowed to migrate for 3 h. DAPI-stained nuclei are shown before (total) and after (migrated) the removal of cells remaining in the top chamber. Scale bars, 100 µm. […] (D,E) Sphere formation (D) and SOX2 expression (E). C6 cells were cultured in CSC medium for 7 days with indicated concentrations of NAZ2329. Images are representative of five independent cultures. Scale bars, 100 µm. […] (F) Self-renewal of C6 spheres. C6 spheres were initially developed in CSC medium for 7 days, followed by an incubation with NAZ2329 in CSC medium for 5 days. Images are representative of five independent cultures. Scale bars, 100 µm. […] Full-length blots and gels are presented in Supplementary Fig. S7.
Cells were inoculated at 5 × 10^3 cells per 96-well uncoated polystyrene plate (# 9018, Corning) or 5 × 10^4 cells per 35-mm plastic petri dish (#351008, Corning), and cultured in a serum-free medium containing DMEM/F12 with 1x B27 supplement (#17504044, Thermo Fisher Scientific), EGF (20 ng/ml), and basic fibroblast growth factor (bFGF, 20 ng/ml, #064-05381, Wako pure chemical). After a 7-day culture, cells were fixed with 10% neutral formalin and pictured under a conventional microscope. The number of spheroids of approximately 70 µm in diameter were counted manually using Adobe Photoshop CS6 (Adobe).

BBB permeability ([1]; from plasma and brain levels 1 h after i.p. 30 mg/kg): poor BBB permeability
concentration at 1 h ([1]; brain, read-out: average level in brain): 300 ng/g
concentration at 1 h ([1]; plasma, read-out: average level in plasma): 22000 ng/mL
SMILES: CCOc1ccc(C(F)(F)F)cc1CSc1ccsc1C(=O)NS(=O)(=O)c1ccccc1 [NAZ2329]
SOX2 expression ([2]; C6 cells, CSC medium, 7 days): decrease in SOX2 expression
sphere formation ([2]; C6 cells, CSC medium, 7 days): dose-dependently inhibited sphere formation
self-renewal of sphere-forming cells ([2]; C6 spheres, 5 days with compound): suppressed self-renewal
